Source: US20220160751A1, “METHODS OF TREATMENT OF DISEASES AND DISORDERS ASSOCIATED WITH INCREASED TET LEVEL, INCREASED H19 LEVEL, INCREASED LEVEL OF TGF SIGNALING, OR ANY COMBINATION THEREOF” (YALE UNIVERSITY, priority 2019, published 2022)
Entries after “also recorded” stand apart in the source; their conditions may differ.

Columns and labels:
Assay type in all cases: cell-based
[1] = system: primary human HSCs; experiment: qPCR of key pathway genes in primary human HSCs; details: TGF-β1 2 ng/mL vs vehicle, 24 h
Experimental: (§1) Total RNA was extracted from cultured cells or liver tissue samples using PureLink RNA Mini Kit (Ambion, 12183018A). 0.8 μg of total RNA was reverse transcribed to cDNA in a reaction volume of 10 μl using PrimeScript RT Reagent Kit (TAKARA, RR037A). Quantitative real-time PCR reactions were carried out using iQSYBRGreen (Bio-Rad) in a Bio-Rad iCycler. Gene expression levels were normalized against housekeeping genes HPRT1 and RPLP0.

[2] = system: LX-2 human hepatic stellate cells; experiment: qPCR and immunoblotting of gene expression in LX-2 cells; details: TGF-β1 5 ng/mL vs vehicle, 24 h
Experimental: LX-2 human hepatic stellate cells (Yale Liver Center) were maintained in DMEM (Gibco, 11965-092) supplemented with 10% heat-inactivated fetal bovine serum (Gibco, 26140-079) and 1% PS (penicillin and streptomycin) at 37° C. in 5% humidified CO2 tissue culture incubator. Generally, cells were plated and transfected in a 24-well plate scale. For transfection with siRNA, let-7, or iLet7, 10 pmol of siTET3 (or siCon), let-7 (or miCon), or iLet7 (iCon) were mixed with 25 μl of OPTI-MEM (Gibco, 31985-070) by gentle pipetting. In parallel, 1 μl of Lipofectamine 3000 (ThermoFisher Scientific, L3000015) was mixed with 25 μl of OPTI-MEM. Then, the contents from the two tubes were mixed by gentle pipetting. After incubation for 5 min at RT, the resulting 50 μl solution was used to resuspend cell pellet (5×10^4 cells). After incubation at RT for 10 min, 450 μl of growth medium was added and the cell suspension was transferred into one well of a 24-well plate. For transfection with TET3-expression plasmid pTET3 (pcDNA-Flag-Tet3, Addgene plasmid #60940, (30)) or control vector, 5×10^4 cells per well were seeded in a 24-well plate the night before transfection. The next day, 0.75 μg of pTET3 (or Vec) were mixed with 1 μl of P3000 in 25 μl of OPTI-MEM by gentle pipetting. In parallel, 0.5 μl of Lipofectamine 3000 were mixed with 25 μl of OPTI-MEM. The contents from the two tubes were combined by gentle pipetting and incubated for 5 min at RT. The resulting 50 μl of transfection solution was added to each well of cells seeded in a 24-well plate the night before and from which the growth medium had been removed. After 6 h of incubation in a tissue culture incubator, 500 μl of growth medium were added to each well of cells. For TGF-β1 (Sigma, USA) treatment experiments, transfected cells were incubated in 500 μl of serum-free DMEM containing 5 ng/mL TGF-β1 (diluted with HCl) or HCl (as control) for 24 h or 48 h as indicated.
as §1
For liver tissue samples, 5-10 mg of tissues were homogenized by sonication (Qsonica, Model Q125) in 150 μl of 2×SDS-sample buffer. Samples were immediately heated at 100° C. for 3 min with occasional vertexing. Then, 100 μl of 2×SDS-sample buffer was added to each sample and the 250 μl of tissue lysate were further homogenized by sonication and heated again at 100° C. for 3-5 min with vertexing once every 15 sec. Samples (further diluted at 1:1 with 2×SDS-sample buffer before loading) were loaded 5-10 μl per well onto a 4-15% gradient SDS gel, followed by Western blot analysis. Image J was used to quantify the protein bands.

[3] = system: Hnf4a P2 and P1 promoters; experiment: ChIP-qPCR and QMSP of Hnf4a promoters in mouse hepatocytes
Experimental: Genomic DNA was extracted from mouse primary hepatocytes grown in 12-well plates using Quick-gDNA MicroPrep (Zymo Research Corporation, D3021) according to the manufacturer's instructions. For bisulfite treatment, 480 ng of DNA was used for each column using EZ DNA Methylation-Gold Kit (Zymo, D5006). 100 μl of elution buffer was used to elute DNA from each column. Real-time quantitative PCR was performed in a 15 μl reaction containing 5 μl of the eluted DNA using iQSYBRGreen in a Bio-Rad iCycler. Two sets of PCR primers were designed: one for unmethylated and one for methylated DNA sequences. The PCR primers for methylated DNA were used at a final concentration of 0.6 μM in each PCR reaction. PCR was performed by initial denaturation at 95° C. for 5 min, followed by 40 cycles of 30 sec at 95° C., 30 sec at 60° C., and 30 sec at 72° C. Specificity was verified by melting curve analysis. The threshold cycle (Ct) values of each sample were used in the post-PCR data analysis. The ratio of methylated versus unmethylated DNA sequences are presented.
Experiments were performed in a 12-well plate scale using the Pierce Agarose ChIP Kit (Thermo Scientific, 26156) according to the manufacturer's instructions with minor modifications. Briefly, agarose beads were used to pre-bind with antibodies (anti-TET3, anti-Ser-5(P)-RNAP, or pre-immune IgGs as negative controls) overnight at 4° C. The next day, hepatocytes were crosslinked with 1% formaldehyde at room temperature for 10 min, and the reaction was stopped by 1×glycine. ChIPs were carried out overnight at 4° C. Levels of ChIP-purified DNA were determined with qPCR (see Table 1 for primer sequences). The relative enrichments of the indicated DNA regions were calculated using the Percent Input Method according to the manufacturer's instructions and are presented as % input.

[4] = system: primary human hepatocytes; experiment: qPCR of gene expression in primary human hepatocytes; details: glucagon 20 nM vs vehicle
Experimental: Mouse primary hepatocytes were prepared as previously described (Zhang N et al., 2018, JCI Insight 3:e120304). Cells were maintained in Williams' Medium (GIBCO, 12551) with 5% FBS, 1% 1 M HEPES buffer (GIBCO, 15630-080), 1% L-Glutamine (GIBCO, 25030-081), 1% SPA (GIBCO, 15240-062), 4 mg/L insulin (GIBCO, 12585-014) and 1 μM dexamethasone (Sigma, D4902). For TET3 overexpression experiments, freshly isolated mouse primary hepatocytes were seeded in 12-well collagen 1-coated plates (BD Biosciences Discovery Labware) at 4×10^5 cells/well and infected with Ad-GFP or Ad-TET3 at 4,000 gc/cell at 3 h after seeding. For TET3 or HNF4α P2 isoform knockdown experiments, cells seeded in 12-well plates were infected with AAV-scr, AAV-siTET3, or AAV-siP2 at 6,000 gc/cell at 3 h after seeding. Medium was changed the next day and glucagon was added at a final concentration of 20 nM. Glucose production assays were carried out at 60 h after infection. […]
Total RNAs were extracted from liver or pancreas tissues or from primary hepatocytes using PureLink RNA Mini Kit. cDNA was synthesized using PrimeScript RT Reagent Kit in a 20 μl reaction containing 0.5-1 μg of total RNA. Real-time quantitative PCR was performed in a 15 μl reaction containing 0.5-1 μl of cDNA using iQSYBRGreen in a Bio-Rad iCycler. […]

[5] = system: mouse primary hepatocytes; experiment: qPCR and immunoblotting of gene expression in mouse primary hepatocytes
Experimental: Mouse primary hepatocytes were prepared as previously described (Zhang N et al., 2018, JCI Insight 3:e120304). Cells were maintained in Williams' Medium (GIBCO, 12551) with 5% FBS, 1% 1 M HEPES buffer (GIBCO, 15630-080), 1% L-Glutamine (GIBCO, 25030-081), 1% SPA (GIBCO, 15240-062), 4 mg/L insulin (GIBCO, 12585-014) and 1 μM dexamethasone (Sigma, D4902). For TET3 overexpression experiments, freshly isolated mouse primary hepatocytes were seeded in 12-well collagen 1-coated plates (BD Biosciences Discovery Labware) at 4×10^5 cells/well and infected with Ad-GFP or Ad-TET3 at 4,000 gc/cell at 3 h after seeding. For TET3 or HNF4α P2 isoform knockdown experiments, cells seeded in 12-well plates were infected with AAV-scr, AAV-siTET3, or AAV-siP2 at 6,000 gc/cell at 3 h after seeding. Medium was changed the next day and glucagon was added at a final concentration of 20 nM. Glucose production assays were carried out at 60 h after infection. Human primary hepatocytes (M00995, Millipore, Sigma) were purchased, thawed, and maintained in InVitroGRO™ CP Medium (Sigma-Aldrich, Z990003) containing 2% Torpedo™ Antibiotic Mix. The cells were seeded in 12-well plates coated with collagen 1 (Millipore, 08-115). Infection of AAV-scr, AAV-sihTET3, and AAV-sihP2 were performed the next day after cell thawing and followed the same dosing protocol for the mouse primary hepatocytes.
Total RNAs were extracted from liver or pancreas tissues or from primary hepatocytes using PureLink RNA Mini Kit. cDNA was synthesized using PrimeScript RT Reagent Kit in a 20 μl reaction containing 0.5-1 μg of total RNA. Real-time quantitative PCR was performed in a 15 μl reaction containing 0.5-1 μl of cDNA using iQSYBRGreen in a Bio-Rad iCycler. PCR was performed by initial denaturation at 95° C. for 5 min, followed by 40 cycles of 30 sec at 95° C., 30 sec at 60° C., and 30 sec at 72° C. Specificity was verified by melting curve analysis. The Ct values of each sample were used in the post-PCR data analysis. Gene expression levels were normalized against house-keeping genes GAPDH and RPLP0.
Primary hepatocytes in 12-well plates were dissociated with 0.25% trypsin. After […] centrifugation at 1000 rpm for 5 min, supernatants were discarded and cell pallets were homogenized in 2×SDS-sample buffer (100 ul/well), followed by heating at 100° C. for 5 min, with occasional vortexing. For liver tissue samples, 5 mg of tissues were minced and 200 μl of 2× SDSsample buffer was added, followed by homogenization on ice using a sonicator (Qsonica, Q125-110). Homogenized samples were heated at 100° C. for 5 min and then centrifuged at 12,000 g for 5 min to remove insoluble materials before loading onto 12% SDS gels (5 μl/well), followed by Western blot analysis. Bands on Western blot gels were quantified using ImageJ. GAPDH was used as a loading control.

[6] = glucagon-stimulated versus vehicle treated hepatocytes

Row | Substance | expression of TET2 and TET1 [1] | expression of TET3, TGFB1, TSP1, TGFBR2, FN1, and COL1A1 [1] | LIN28B expression [2] | SMAD3 phosphorylation (with expression of α-SMA, COL1A1, FN1 and TIMP1) [2] | TET3 expression (mRNA and protein) [2] | expression of TGF-β1, TSP1, and TGFBR2 [2] | let-7a and let-7b expression [2] | binding of TET3 to Hnf4a promoters (ChIP-qPCR) ([3]; glucagon 20 nM 24 h vs vehicle) | methylation of P2 (QMSP) ([3]; glucagon 20 nM 24 h vs vehicle) | RNAP association with P1 (ChIP) [3, 6] | enrichment in RNAP at the P2 promoter (ChIP) [3, 6] | HNF4α expression from P2 and P1 [4] | expression of PCK1 and G6PC [4] | HNF4α P2 usage (qPCR) ([5]; H19 KO hepatocytes, glucagon 20 nM 24 h) | Tet3 expression (qPCR) ([5]; H19 KO primary hepatocytes, glucagon 20 nM 24 h) | Pck1 and G6pc expression (qPCR) ([5]; WT hepatocytes, glucagon 20 nM vs vehicle) | HNF4α P2 and P1 isoform expression (qPCR) ([5]; WT primary hepatocytes) | H19 and Tet3 expression (qPCR) ([5]; WT primary hepatocytes, glucagon 20 nM 24 h or AAV-H19 48 h without glucagon)
1 | TGF-β1: TGF-β1 (Sigma) used to stimulate LX-2 cells and primary human HSCs | decreased expression of TET2 and TET1 | increased expression of TET3, TGFB1, TSP1, TGFBR2, FN1, and COL1A1 | stimulated expression of LIN28B | concomitant increase in SMAD3 phosphorylation; also recorded: increased Smad3 phosphorylation | upregulated TET3; also recorded: increased expression of TET3 | also increased | decreased expression of let-7a and let-7b |  |  |  |  |  |  |  |  |  |  | 
2 | glucagon |  |  |  |  |  |  |  | dramatically increased binding of TET3 to P2 but not P1 | significantly decreased methylation of P2 | no change in RNAP association with P1 | approximately 5 fold | stimulated expression from P2 (but not P1) | increased expression of PCK1 and G6PC | failed to do so | no longer stimulated Tet3 expression | increased expression of Pck1 and G6pc | increased P2 usage in WT hepatocytes | readily induced
